The values below come from ChEMBL document CHEMBL1125873 (J Med Chem, 1991).

Data set [1] can be described thus: Half-life value of the compound. It is filed as ADME.
Data set [2] is described as follows: Loss of first equivalent halide ion using Chloride ion electrode experiments. It is filed as ADME.

With `O=P(O)(NCCCl)NCCCl` [PALIFOSFAMIDE], the half-life in data set [1] stood at 1.15 h. Also, the “k x10e3” value in data set [2] is 10 min-1.
